Reference: patent US20240384268A1, “Oligonucleotides” (Hudson Institute of Medical Research, priority 2021, published 2024)

Target: T1, human TLR7 (Homo sapiens, UniProt Q9NYK1)
T1 construct: HA; host or cells: 293XL-hTLR7-HA (HEK293)
T1 sequence (Q9NYK1 27-1049): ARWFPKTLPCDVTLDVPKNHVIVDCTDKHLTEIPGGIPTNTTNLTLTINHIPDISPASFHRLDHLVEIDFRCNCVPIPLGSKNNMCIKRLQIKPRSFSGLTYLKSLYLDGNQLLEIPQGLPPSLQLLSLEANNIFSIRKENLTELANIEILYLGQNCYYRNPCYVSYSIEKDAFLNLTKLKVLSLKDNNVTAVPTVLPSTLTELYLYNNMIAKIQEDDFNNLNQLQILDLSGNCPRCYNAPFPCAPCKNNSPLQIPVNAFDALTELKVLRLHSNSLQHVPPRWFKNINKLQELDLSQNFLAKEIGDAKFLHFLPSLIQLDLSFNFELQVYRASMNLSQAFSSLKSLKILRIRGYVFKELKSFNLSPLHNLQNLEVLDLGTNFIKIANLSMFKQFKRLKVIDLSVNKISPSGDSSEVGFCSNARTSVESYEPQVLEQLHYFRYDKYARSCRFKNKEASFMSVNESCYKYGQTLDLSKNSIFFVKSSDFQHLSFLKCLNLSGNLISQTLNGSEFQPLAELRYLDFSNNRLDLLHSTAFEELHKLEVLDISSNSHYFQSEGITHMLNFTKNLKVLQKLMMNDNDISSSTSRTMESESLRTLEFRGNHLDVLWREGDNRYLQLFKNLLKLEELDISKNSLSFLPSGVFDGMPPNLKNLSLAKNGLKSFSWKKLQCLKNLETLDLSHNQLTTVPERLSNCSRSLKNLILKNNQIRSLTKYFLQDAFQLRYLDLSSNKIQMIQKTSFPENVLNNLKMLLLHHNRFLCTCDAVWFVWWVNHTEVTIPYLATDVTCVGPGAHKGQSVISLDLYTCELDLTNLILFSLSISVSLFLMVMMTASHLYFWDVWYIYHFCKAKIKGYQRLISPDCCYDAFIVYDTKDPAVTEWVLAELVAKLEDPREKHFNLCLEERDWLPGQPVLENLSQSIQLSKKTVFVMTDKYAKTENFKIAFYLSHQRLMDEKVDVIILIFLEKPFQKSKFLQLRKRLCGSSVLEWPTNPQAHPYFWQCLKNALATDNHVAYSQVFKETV
Experiment: HEK-TLR7 NF-κB-luciferase reporter, R848 stimulation
Assay type: cell-based
Conditions: averaged NF-κB-Luciferase relative to R848 condition; for TLR7 100 nM: MOE-modified ASO at 100 nM; for TLR7 500 nM: MOE-modified ASO at 500 nM

Sequence	TLR7 100 nM	TLR7 500 nM
AACACTTCGTGGGGTCCTTT (antisense; 2'-MOE modified, pattern not given here) [HPRT-664 MOE]	0.406	0.226
AATCCGCCCAAAGGGAACTG (antisense; 2'-MOE modified, pattern not given here) [HPRT-1027 MOE]	0.691	0.521
ACAACCCCTTTCACCATCCC (antisense; 2'-MOE modified, pattern not given here) [MB21D1-689 MOE]	0.593	0.533
ACAGTGTTGAGATACTCGGG (antisense; 2'-MOE modified, pattern not given here) [EGFR-3652 MOE]	0.420	0.129
ACCCACTTGGCAGACCATCA (antisense; 2'-MOE modified, pattern not given here) [CTNN2B-1575 MOE]	0.473	0.336
ACTGACTGTCTTGAGGGTTC (antisense; 2'-MOE modified, pattern not given here) [MB21D1-1483 MOE]	0.627	0.299
AGATCTGGCAGCCCATCAAC (antisense; 2'-MOE modified, pattern not given here) [CTNN2B-2516 MOE]	0.500	0.201
AGGTCTTGGCTTCGTGGAGC (antisense; 2'-MOE modified, pattern not given here) [MB21D1-522 MOE]	0.547	0.150
ATCCAACACTTCGTGGGGTC (antisense; 2'-MOE modified, pattern not given here) [HPRT-668 MOE]	0.758	0.611
ATGTCCCCTGTTGACTGGTC (antisense; 2'-MOE modified, pattern not given here) [HPRT-489 MOE]	0.426	0.224
ATGTCCCGCCACTGGATGCT (antisense; 2'-MOE modified, pattern not given here) [EGFR-727 MOE]	0.397	0.171
ATGTGATGGCCTCCCATCTC (antisense; 2'-MOE modified, pattern not given here) [HPRT-333 MOE]	0.643	0.345
CAACACTTCGTGGGGTCCTT (antisense; 2'-MOE modified, pattern not given here) [HPRT-665 MOE]	0.487	0.285
CAAGGCCCTTCGCACTTCTT (antisense; 2'-MOE modified, pattern not given here) [EGFR-1225 MOE]	0.587	0.336
CAATGTGATGGCCTCCCATC (antisense; 2'-MOE modified, pattern not given here) [HPRT-335 MOE]	0.451	0.279
CACCCACTTGGCAGACCATC (antisense; 2'-MOE modified, pattern not given here) [CTNN2B-1576 MOE]	0.600	0.227
CAGATAGCACCTTCAGCACT (antisense; 2'-MOE modified, pattern not given here) [CTNN2B-1294 MOE]	0.497	0.254
CCAACACTTCGTGGGGTCCT (antisense; 2'-MOE modified, pattern not given here) [HPRT-666 MOE]	0.856	0.334
CGTGTCTGGAAGCTTCCTTT (antisense; 2'-MOE modified, pattern not given here) [CTNN2B-808 MOE]	0.541	0.350
CTCTTGAAGCATCGTATCAC (antisense; 2'-MOE modified, pattern not given here) [CTNN2B-3648 MOE]	0.609	0.341
